Data as given in patent publication US10214491B2, “Activators and therapeutic applications thereof” (THE JOHNS HOPKINS UNIVERSITY, priority 2007, dated 2019).
Entries after “also recorded” stand apart in the source; their conditions may differ.

Legend:
[1] = test system: A375 melanoma cells; assay: Flow cytometry cell cycle and apoptosis analysis; type: cell-based; settings: A375, three days at 10 μM or six days at 5 μM
Method: Cell cycle analysis and cellular apoptosis was assayed with flow cytometry (LSR, Beckton Dickinson). Cells were treated with the compounds and both floating and adherent cells were harvested and fixed in 70% ethanol at −20° C. followed by staining of DNA with propidium iodide. A total of 10,000 counts were collected and data was analysed using ModFit LT 3.1 software. Cells present in sub-G1 population were regarded as apoptotic.

[2] = test system: normal human primary melanocytes; assay: WST-1 cell viability assay, melanocytes; type: cell-based; settings: Melanocyte, three days
Method: (§1) The effect of the compounds selected using the screening assay on the viability of several tumor cell lines as well as diploid cell lines and cell strains was studied. Cells were plated in 96-well plates at a density of 10,000 cells/100 μL/well and were incubated overnight. The following day compound dilutions ranging from 0 to 40 μM were applied to the cells in triplicate and the cells were incubated with the compounds for three days. Cell viability was assayed using the WST-1 cell proliferation reagent (Roche Diagnostics, Germany) The WST-1 reagent was diluted 1:10 in cell culture media and 100 μL of the reagent dilution was applied onto cells followed by 1 hour incubation at +37° C. The specific absorbance was measured at 450 nm and a reference absorbance was measured at 690 nm. […] Analysis for Protein Levels

[3] = test system: WS-1 diploid fibroblast; assay: WST-1 cell viability assay, WS-1; type: cell-based, human; settings: three days
Method: as §1

[4] = test system: RPMI7951 (MUTp53); assay: WST-1 cell viability assay, RPMI-7951; type: cell-based; settings: three days
Method: as §1

[5] = test system: A375 melanoma (WTp53); assay: WST-1 cell viability assay, A375; type: cell-based; settings: for IC50: A375 melanoma (WTp53), three days, WST-1
Method: as §1

[6] = test system: Human intestinal endothelial cells; assay: WST-1 cell viability assay, intestinal endothelial cells; type: cell-based; settings: three days
Method: as §1

[7] = test system: p53DsRed reporter in PG3/9 melanoma cells (A375 clone); assay: p53DsRed reporter activation assay (in vitro p53 activity assay); type: cell-based; settings: for EC50: Homo sapiens, A-375, PG3/9 melanoma cells, 24 hours, read-out: effective concentration (EC50), p53DsRed reporter activation; for fraction of p53-reporter activated cells at high concentrations: apparently due to excessive cell death
Method: The ability of the compounds to activate p53 was analyzed using a cell-based assay. To establish the assay, a stable cell transfectant expressing a p53-responsive reporter was generated. A375 melanoma cell line (ATCC CRL-1619) was transfected with a vector containing the p53 consensus element 13x repeat (13XRE) (Kern et al., 1991) cloned to a DsRed Express reporter vector (Clontech) to yield the vector “PG13DsRed”, hereafter termed as “p53DsRed”. […] The cell clone PG3/9 was used in the screen.
The assay was carried out in a 96-well format and all plate handlings were done using liquid handling robots (Thermo CRS, Thermo Electron Corporation; Biomek FX, Beckman Coulter and Hamilton STAR, Hamilton Microlab). Cells were plated at 10,000 cells/100 μL/well onto 96-well ViewPlates (Packard) and incubated overnight at +37° C. and 5% CO2. Small molecule compound chemical libraries were purchased and diluted to dimethylsulfoxide (DMSO) at 10 mM concentration. The compounds were pin-transferred to plain media at approximately 3 μM concentration either as single (one compound/one well) or pools of compounds (two compounds/one well). The growth media was removed and replaced with media with the test compounds followed by incubation of the cells for 24 h at +37° C. and 5% CO2. […] Following the incubation, the cells were washed with phosphate buffered saline and fixed with paraformaldehyde (PFA, 4%, 25 min, RT) and cell nuclei were stained with Hoechst 33342 (Molecular Probes, 4 μg/mL, 2 min, RT).
The fluorescence signals of Hoechst 33342 and DsRed reporter expression in the fixed cells were analyzed using ArrayScan 4.5 high-content screening platform (Cellomics) including an inverted microscope (Zeiss 200M) with 10× objective (Zeiss), Omega XF93 filter (Omega), ORCA-AG CCD camera (Hamamatsu). The algorithm used for image acquisition and analysis was Target Activation Bioapplication (Cellomics), which was set to analyse the total number of cells and the percentage of p53 reporter positive cells termed as “responders”. For each well, four images on both fluorescence channels were acquired corresponding to approximately 1700 cells in mock-treated wells. The mean number of responders was calculated for each well, and compounds causing reporter activation for more than two times the mean number of responders in the mock treated cells in each plate were regarded as hits.
In the secondary screen the hits were collected and tested over 100 nM to 10 μM concentration range. The compound treatment time, cell fixations and stainings as well as fluorescence signal detection was as described above. Compounds providing consistent p53DsRed reporter activation at low μM concentration range were selected for further testing. The effective concentration 50 (EC50) was calculated using the following formula: […]

[8] = test system: p53, Mdm2 and p21 levels in A375 melanoma cells; assay: Immunoblotting and immunofluorescence for p53, Mdm2 and p21 levels; type: cell-based; settings: A375, 24 hours, 5 μM
Method: To study the effect of compounds on endogenous protein levels, A375 melanoma cells were treated with the compounds for 24 hours. Cellular lysates were prepared in lysis buffer containing 0.5% NP-40 with proteinase inhibitors. Protein (20-30 μg) was separated by sodium dodecyl sulphate-polyacrylamide gel electrophoresis (SDS-PAGE) followed by transfer to PVDF membrane (Immobilon™-P, Millipore, Bedford, Mass., USA). Immunoblotting was carried out using DO-1 antibody for p53, 2A10 for Mdm2 and anti-p21 (Becton Dickinson) to detect p21, followed by secondary antibodies conjugated with horseradish peroxidase (p53) or biotin followed by streptavidin-horseradish peroxidase (Mdm2 and p21) after which proteins were detected with enhanced chemiluminescence (ECL, Amersham Life Sciences). Equal protein loading was verified using GAPDH (p9.B.88, Europa Bioproducts Ltd, UK) as a protein loading control.
(§2) Immunofluorescence staining was carried out to determine the correct localisation of p53 and to detect H2AX phosphorylation indicative of genotoxic stress. Cells were treated with the compounds and fixed in paraformaldehyde (3.5 PFA, 25 min RT). The coverslips were permeabilised in 0.5% NP-40 and blocked in 3% bovine serum albumin (BSA). p53 was detected by staining with FL-393 antibody (Santa Cruz, 1:50, 1 h at +37° C.) followed by Alexa-594 conjugated secondary antibody (Molecular Probes, 1:200, 1 h at +37° C.), phospho-H2AX was detected by staining with anti-H2AX (P-Ser-139) antibody (Upstate, 1:200 1 h at +37° C.) followed by Alexa-488 conjugated secondary antibody (Molecular Probes, 1:200, 1 h at +37° C.). Nuclei were stained with Hoechst 33342. Images were captured using the Zeiss Axioplan fluorescence microscope equipped with Zeiss AxioCam HRc CCD-camera and AxioVision 4.5 software using 40×, NA=0,75 objective, Chroma 31000, Chroma41001 and 41004 filters for Hoechst, Alexa488 and Alexa594, respectively.

[9] = test system: phosphorylation of histone H2AX on serine-139 (γH2AX) in A375 melanoma cells; assay: Phospho-H2AX immunofluorescence (genotoxic stress); type: cell-based; settings: A375, 5 μM, 24 hours
Method: as §2

[10] = In vivo toxicity tests; settings: mice; for acute or chronic toxicities based on histological HE-stainings: i.p., 5, 10 and 20 mg/kg three times a week for three weeks; for toxicity by weight curves, macroscopical pathologies, hematoxylin-eosin staining of tissues: i.p., 5, 10 and 20 mg/kg, 9 doses/3 weeks
Method: Acute and chronic toxicity of the compounds was tested on FVB/N mice. Female mice of 4-6 weeks old were purchased from Harlan and 2 animals were used per compound dose. The mice were injected intraperitoneally with the compounds three times a week for three weeks in 30 microL DMSO. Two animals received vehicle only (=30 μL DMSO). The animals were weighed prior to injections and were monitored for any signs of toxicity, distress or unusual behaviour. The animals were sacrificed three days after receiving the final injection. The liver, kidney, spleen, small intestine and thymus were excised and fixed in 4% paraformaldehyde overnight, and processed into paraffin-blocks. Haematoxylin-eosin staining (HE staining) of the tissues was performed using standard immunohistological techniques.

[11] = test system: BC3-luc pleural effusion lymphoma cells; assay: Orthotopic xenograft model of pleural effusion lymphoma; type: in vivo; settings: NOD-SCID mice, 20 mg/kg i.p. seven times
Method: An orthotopic xenograft model of pleural effusion lymphoma was used to assess the anti-tumor activities of compounds 15, 21 and 22. Female NOD-SCID mice (Charles River, France) were injected intraperitoneally with pleural effusion lymphoma cells carrying a stable NF-kappaB regulated luciferase reporter (BC3-luc cells) (Keller et al., 2006). The tumors were allowed to establish for three days after which the mice were imaged and divided into treatment (groups 4-5 mice per group). The compound treatments were initiated on day four. The mice received 2 mg/kg (cmp21) or 20 mg/kg (cmp15 and 22) every other/third day for seven times via i.p. injections, control mice received DMSO only. The mice were imaged prior to each compound injection. Imaging was carried out with Xenogen In Vivo Imaging System (IVIS), D-luciferin (Synchem OHG, Germany) was injected intraperitoneally (100 mg/kg) 10-15 min prior to each imaging. Quantitation was done using Igor Pro Carbon analysis software, bioluminescence was quantitated and plotted as total flux within a given ROI.

[12] = test system: B-cell lymphoma (Kaposi's sarcoma herpes virus-infected pleural effusion lymphoma) cells; settings: cited from earlier work

SMILES	cell cycle / apoptosis phenotype [1]	IC50 ([2]; Homo sapiens, 72 h) [µM]	IC50 ([3]; Homo sapiens, 72 h) [µM]	IC50 ([4]; Homo sapiens, RPMI-7951, 72 h) [µM]	IC50 ([5]; Homo sapiens, A-375, 72 h) [µM]	IC50 ([6]; Endothelial cell, 72 h) [µM]	EC50 [7] [µM]	acute or chronic toxicities based on histological HE-stainings [10]	toxicity by weight curves, macroscopical pathologies, hematoxylin-eosin staining of tissues [10]	further results
COc1cccc2c(N)c3c(cnn3C)nc12 [Compound 1, 5-methoxy-1-methylH-pyrazolo[4,3-b]quinolin-9-amine]	G2-phase arrest and apoptosis	30.4	10.4	14.7	4.3	13.1	3.3	–	–	fold difference IC50 (A375)/ IC50 (WS-1) ([5]; A375 melanoma versus WS-1 normal cells): 2.4 fold; fraction of p53-reporter activated cells at high concentrations [7]: decrease in the fraction of p53-reporter activated cells; Mdm2 induction [8]: most prominent
CN(C)CCCNc1nn2c(=O)c3ccccc3nc2c2ccccc12 [Compound 7]	imminent G2-phase arrest and increased the apoptotic fraction of the cells	32.4	18.1	16.8	3	19.6	6.6	No acute or chronic toxicities were observed	did not show any apparent toxicity	cellular γH2AX response (genotoxic stress) [9]: induces genotoxic stress; also recorded: induced a cellular γH2AX response
CCOC(=O)c1cnc2c(C)cc(C)cc2c1NCCCN(C)C [Compound 9, ethyl 4-(3-dimethylaminopropylamino)-6,8-dimethyl-quinoline-3-carboxylate]	G1-phase arrest	> 40	15.7	17.8	6.1	19.6	4.6	No acute or chronic toxicities were observed	did not show any apparent toxicity	Mdm2 induction [8]: most prominent
Cc1sc2nc3c4ccccc4c(NCCCN(C)C)nn3c(=O)c2c1C [Compound 15]	–	–	–	–	–	–	5.4	No acute or chronic toxicities were observed	did not show any apparent toxicity	cellular γH2AX response (genotoxic stress) [9]: induces genotoxic stress; also recorded: induced a cellular γH2AX response; inhibition of tumor cell growth (bioluminescence) [11]: noticeable inhibition of the tumor cell growth
Cc1cc(C)c2c(N)c3cccc(C)c3nc2n1 [Compound 23, 2,4,9-trimethylbenzo[b]-1,8-naphthyridin-5-amine]	–	–	–	–	–	–	2.1	–	–	fraction of p53-reporter activated cells at high concentrations [7]: decrease in the fraction of p53-reporter activated cells
COc1ccc(C2=N[C@@H](c3ccc(Cl)cc3)[C@@H](c3ccc(Cl)cc3)N2C(=O)N2CCNC(=O)C2)c(OC(C)C)c1 [Nutlin, nutlin-3a, reference compound]	–	–	–	–	–	–	–	–	–	IC50 [2]: > 40 µM; IC50 [3]: 20.6 µM; IC50 [4]: > 40 µM; IC50 [5]: 7.2 µM; IC50 [6]: 10.7 µM; B-cell lymphoma cell killing ([12]; in vitro and in vivo mouse models): highly effective agent inducing B-cell lymphoma; adverse side-effects ([12]; mouse): does not cause any adverse side-effects
CCOc1ccc(C2=CC(c3cc(OC)c(OC)c(OC)c3)n3ncnc3N2)cc1 (stereo not drawn) [Compound 20, 5-(4-ethoxyphenyl)-7-(3,4,5-trimethoxyphenyl)-4,7-dihydro-[1,2,4]triazolo[1,5-α]pyrimidine]	–	–	–	–	–	–	0.6	–	–	–
